A word on the viability: it is a read-out of living cells in per cent, often relative to untreated cells.

Experimental findings from PMC12040169 (PLOS Biology, 2025) are described below.

A short description of the first series: in vitro. The note with it: human, hela cells, % viability.
As for `COc1ccc(-c2nc3cc(NC(=O)COc4ccccc4[N+](=O)[O-])ccc3o2)cc1Cl` [CBK263412], the viability at 28.5 h, 10 µM was 99.2%.

With `CC1=C(C#N)c2nc(N)c(C#N)c(C)c2/C1=C\c1ccc(-c2ccc(C(=O)O)cc2)o1` [CBK263415], the viability at 28.5 h, 10 µM turned out to be 105%.

For `O=C1c2ccccc2C(=O)N1CCCSc1nnc(-c2ccncc2)n1-c1ccccc1` [CBK263419], the viability at 28.5 h, 10 µM was determined as 102%.

For `Cc1cc([N+](=O)[O-])ccc1-c1ccc(C(=O)Nc2ccc(O)c(-c3nc4ccccc4s3)c2)o1` [CBK263421], the viability at 28.5 h, 10 µM came to 93%.

`O=C(Nc1ccc(-c2nc3ccccc3o2)c(O)c1)c1ccc(-c2cccc(Cl)c2)o1` [CBK263422]: the viability at 28.5 h, 10 µM stood at 95.4%.

Regarding `CCOC(=O)c1ccc(-c2ccc(C(=O)Nc3ccc(-c4nc5ccccc5o4)c(O)c3)o2)cc1` [CBK263428], the viability at 28.5 h, 10 µM turned out to be 99%.

Consider `O=C(COc1ccc(I)cc1)Nc1cccnc1` [CBK263430], for which the viability at 28.5 h, 10 µM worked out at 98.9%.

In the case of `O=C(O)c1ccc(Cl)c(-c2ccc(/C=N\Nc3ccc([N+](=O)[O-])cn3)o2)c1` [CBK263431], the viability at 28.5 h, 10 µM was found to be 93.9%.

`Cc1ccc(Br)cc1S(=O)(=O)N1CCN(C(c2ccccc2)c2ccccc2)CC1` [CBK263433]: the viability at 28.5 h, 10 µM turned out to be 95.3%.

`O=C(/C=C/c1ccc(-c2ccccc2[N+](=O)[O-])o1)Nc1ccc(-c2nc3ncccc3o2)cc1` [CBK263434]: the viability at 28.5 h, 10 µM came out at 99.2%.

In the case of `Cc1ccc2oc(-c3cccc(NC(=O)c4ccc(-c5ccc([N+](=O)[O-])cc5)o4)c3C)nc2c1` [CBK263437], the viability at 28.5 h, 10 µM amounted to 103%.

Take `O=C(Nc1ccc(O)c(-c2nc3ccccc3o2)c1)c1ccc(-c2ccc([N+](=O)[O-])cc2)o1` [CBK263439]: the viability at 28.5 h, 10 µM is 96.4%.

Take `O=C(O)C12CC3CC(C(=O)O)(C1)CC(C(=O)O)(C3)C2` [CBK263442]: the viability at 28.5 h, 10 µM was 84.4%.

Regarding `O=C(CC1(C(F)(F)F)NCCN1)c1cccc([N+](=O)[O-])c1` [CBK263443], the viability at 28.5 h, 10 µM came out at 83.1%.

Take `Nc1nc(SCCc2ccccc2)nc2sc3c(c12)CCCC3` [CBK263445]: the viability at 28.5 h, 10 µM is 94.9%.

For the compound `CC(=O)c1ccc(OC(C)C)c(CSc2nc(O)cc(O)n2)c1` [CBK263446], the viability at 28.5 h, 10 µM turned out to be 91.5%.

Consider `CCOc1cc(C=O)ccc1OCc1c(C)no[n+]1[O-]` [CBK263449], for which the viability at 28.5 h, 10 µM stood at 92.1%.

Regarding `O=C(Cc1ccccc1)N1CCN(CCCc2ccccc2)CC1` [CBK263451G], the viability at 28.5 h, 10 µM stood at 96.8%.

With `Cc1ccc(S(=O)(=O)N2CCN(CCCc3ccccc3)CC2)cc1` [CBK263453], the viability at 28.5 h, 10 µM was 95.2%.

Consider `O=C(CN1C(=O)c2ccc([N+](=O)[O-])cc2C1=O)Nc1ccc(O)cc1C(=O)O` [CBK263456], for which the viability at 28.5 h, 10 µM turned out to be 95.5%.

Regarding `c1ccc(CCCN2CCN(C3CCN(Cc4ccccc4)CC3)CC2)cc1` [CBK263457], the viability at 28.5 h, 10 µM was determined as 84.8%.

On to `CCn1c(C(O)c2ccc(OCc3ccccc3)cc2)nc2ccccc21` (stereo not shown) [CBK263458], for which the viability at 28.5 h, 10 µM amounted to 96.1%.

For `COc1ccc(OCC(=O)N2CCN(C3CCC(c4ccccc4)CC3)CC2)cc1` (stereo not shown) [CBK263459], the viability at 28.5 h, 10 µM was 97.7%.

Turning to `CC1=NN(c2ccc(S(N)(=O)=O)cc2)C(=O)/C1=C\c1ccc(-c2cc([N+](=O)[O-])ccc2C)o1` [CBK263460], the viability at 28.5 h, 10 µM amounted to 106%.

As for `c1ccc(CCCN2CCN(Cc3ccccn3)CC2)cc1` [CBK263461G], the viability at 28.5 h, 10 µM was found to be 91.6%.

Turning to `COc1cc(CN2CCN(C(=O)c3ccccc3)CC2)cc(OC)c1O` [CBK263462], the viability at 28.5 h, 10 µM stood at 94.3%.

Take `Cc1ccc(S(=O)(=O)Oc2c(C=C3C(=O)CC(C)(C)CC3=O)[nH]c3ccccc23)cc1` [CBK263464]: the viability at 28.5 h, 10 µM is 94.4%.

`C1=CCC(CN2CCN(C3CCN(Cc4ccccc4)CC3)CC2)CC1` (stereo not shown) [CBK263469]: the viability at 28.5 h, 10 µM was 91.6%.

`Nc1nnc(CSCc2ccc(Cl)cc2Cl)s1` [CBK263471]: the viability at 28.5 h, 10 µM amounted to 100%.

In the case of `CC1=NN(c2ccc(S(N)(=O)=O)cc2)C(=O)/C1=C\c1ccc(-c2ccc(S(N)(=O)=O)cc2)o1` [CBK263476], the viability at 28.5 h, 10 µM worked out at 97.4%.

For the compound `O=C(O)CCC(=O)Nc1ccc(NC(=O)c2ccccc2)c(Cl)c1` [CBK263478], the viability at 28.5 h, 10 µM worked out at 86.8%.

As for `COc1ccc(CN2CCN(C(=O)c3ccccc3F)CC2)cc1OCc1ccccc1` [CBK263479], the viability at 28.5 h, 10 µM was 80.7%.

Turning to `CCN(CC)CCCN1C(=O)CSC1c1ccc2c(c1)OCO2` (stereo not shown) [CBK263482C], the viability at 28.5 h, 10 µM came out at 102%.

On to `CS(=O)(=O)N1CCN(C2CCN(Cc3ccccc3)CC2)CC1` [CBK263485], for which the viability at 28.5 h, 10 µM is 95.9%.

For the compound `O=[N+]([O-])c1cc(Br)cc(/C=N/Nc2nc3ccccc3[nH]2)c1O` [CBK263486], the viability at 28.5 h, 10 µM amounted to 89.1%.

With `O=C(CSc1n[nH]c(=O)[nH]c1=O)N/N=C/c1ccc(O)cc1` [CBK263488], the viability at 28.5 h, 10 µM worked out at 95.4%.

In the case of `NNC(=O)Cn1c(-c2ccccn2)nc2ccccc21` [CBK263489], the viability at 28.5 h, 10 µM was determined as 108%.

On to `COc1ccc(C2=NN(CN3C(=O)C(=O)c4cc(Br)ccc43)C(c3cccc([N+](=O)[O-])c3)C2)cc1` (stereo not shown) [CBK263490], for which the viability at 28.5 h, 10 µM turned out to be 119%.

Take `CCC(=O)Nc1nc2ccccc2n1CCCN(C)C` [CBK263492]: the viability at 28.5 h, 10 µM worked out at 102%.

As to `Cc1cccc(C(=O)NCCc2nc3ccccc3[nH]2)c1` [CBK263493], the viability at 28.5 h, 10 µM is 100%.

As for `CCC(=O)NNC(=O)c1cc(O)nc2ccccc12` [CBK263495], the viability at 28.5 h, 10 µM is 98.1%.

Turning to `COc1ccc(OC)c(NC(=O)COc2ccc(C(C)C)cc2)c1` [CBK263498], the viability at 28.5 h, 10 µM was 114%.

Turning to `NS(=O)(=O)c1ccc(CCNC2CC(=O)N(CCc3ccccc3)C2=O)cc1` (stereo not shown) [CBK263502], the viability at 28.5 h, 10 µM was 93.4%.

Consider `Cc1c(C)[n+]([O-])c2cc(N3CCN(C)CC3)c(Cl)cc2[n+]1[O-]` [CBK263503], for which the viability at 28.5 h, 10 µM amounted to 96.3%.

Regarding `CN1C(=O)/C(=C2\SC(=S)N(C(Cc3ccccc3)C(=O)O)C2=O)c2ccccc21` (stereo not shown) [CBK263507], the viability at 28.5 h, 10 µM came out at 99.6%.

In the case of `O=C(CSc1n[nH]c(=O)[nH]c1=O)N/N=C/c1cccs1` [CBK263508], the viability at 28.5 h, 10 µM stood at 98.9%.

On to `CC(=O)Nc1ccc(/C(C)=N\NC(=O)CCN2CCCCC2)cc1` [CBK263509], for which the viability at 28.5 h, 10 µM was 95.9%.

For the compound `Cc1ccc(OCC(=O)NNC(=O)C2COc3ccccc3O2)cc1` (stereo not shown) [CBK263511], the viability at 28.5 h, 10 µM was determined as 95.4%.

As for `O=C(Nc1ccccc1C(=O)N1CCN(Cc2ccccc2)CC1)c1ccccn1` [CBK263512], the viability at 28.5 h, 10 µM amounted to 106%.

Regarding `COc1cc(/C=N/NC(=O)CSc2n[nH]c(=O)[nH]c2=O)ccc1O` [CBK263513], the viability at 28.5 h, 10 µM amounted to 88.7%.

Consider `O=C(NCCc1nc2ccccc2[nH]1)c1cccc(Cl)c1` [CBK263514], for which the viability at 28.5 h, 10 µM was determined as 100%.

For `CCN1C(=O)/C(=C\NN=C2CCCC2)c2ccc(C3=NNC(=O)CC3)cc21` [CBK263515], the viability at 28.5 h, 10 µM came to 88.1%.

As to `CCN(CC)CCNC1=Nc2ccccc2CCC1` [CBK263520], the viability at 28.5 h, 10 µM was 94.7%.

As for `O=C1Nc2ccc(Br)cc2/C1=C1/SC(=S)N(C(Cc2ccccc2)C(=O)O)C1=O` (stereo not shown) [CBK263521], the viability at 28.5 h, 10 µM was found to be 95.6%.

As to `CC(Nc1n[nH]c(=O)[nH]c1=O)C(=O)N/N=C/c1ccccc1O` (stereo not shown) [CBK263526], the viability at 28.5 h, 10 µM worked out at 91.7%.

As to `COc1cc(/C=N/NC(=O)CSc2n[nH]c(=O)[nH]c2=O)cc(OC)c1O` [CBK263527], the viability at 28.5 h, 10 µM was determined as 92.9%.

On to `O=C(O)c1cc(NC(=O)c2cccc(Oc3ccc([N+](=O)[O-])cc3)c2)cc(C(=O)O)c1` [CBK263528], for which the viability at 28.5 h, 10 µM came out at 80.8%.

Consider `O=C(CNc1n[nH]c(=O)[nH]c1=O)N/N=C/c1ccc(C(=O)O)cc1` [CBK263529], for which the viability at 28.5 h, 10 µM turned out to be 96.2%.

As for `O=C(O)CCCC(=O)NNC(=O)c1cccc(Br)c1` [CBK263530], the viability at 28.5 h, 10 µM is 99.9%.

Consider `CC1=C(C)CC(C(=O)Nc2ccc3c(c2)oc2ccccc23)C(C(=O)O)C1` (stereo not shown) [CBK263533], for which the viability at 28.5 h, 10 µM was found to be 102%.

Take `CC(=O)Nc1ccc(NC(=O)C2C3CCC(C3)C2C(=O)O)cc1` (stereo not shown) [CBK263534]: the viability at 28.5 h, 10 µM was 93.9%.

On to `S=C1NCN(Cc2ccccc2)CN1c1ccccc1` [CBK263536], for which the viability at 28.5 h, 10 µM amounted to 91.3%.

Consider `O=C(NCCNc1ccc(Cl)cc1[N+](=O)[O-])c1ccccc1Br` [CBK263538], for which the viability at 28.5 h, 10 µM is 102%.

As for `Cc1cc(C)nc(Nc2nc3ccccc3[nH]2)n1` [CBK263539], the viability at 28.5 h, 10 µM worked out at 102%.

As to `Cc1ccc(C(=O)Nc2ccccc2C(=O)NC(C)C(=O)O)cc1` (stereo not shown) [CBK263540], the viability at 28.5 h, 10 µM amounted to 93.9%.

Consider `COCc1cc(CN2CCN(C)CC2)c(O)c2ncccc12` [CBK263546], for which the viability at 28.5 h, 10 µM came to 85.1%.

For the compound `Cc1ccc(OCC(=O)Nc2sc3c(c2C#N)CCCC3)cc1` [CBK263548], the viability at 28.5 h, 10 µM came out at 109%.

For the compound `CSc1nc2ccc(NC(=O)CSc3nnnn3-c3ccccc3)cc2s1` [CBK263549], the viability at 28.5 h, 10 µM is 88.3%.

Turning to `Oc1ccc(Nc2nc3nonc3nc2Nc2ccccc2)cc1` [CBK263551], the viability at 28.5 h, 10 µM came to 94%.

Consider `O=C(CSc1ccccn1)Nc1ccccc1-c1ccccc1` [CBK263553], for which the viability at 28.5 h, 10 µM was 90.6%.

As to `COc1ccccc1C(=O)O/N=C1/CCCc2c1ccc(OC)c2[N+](=O)[O-]` [CBK263555], the viability at 28.5 h, 10 µM was 102%.

For `CCCc1c(C)nc2ccccc2c1SCC(=O)O` [CBK263558], the viability at 28.5 h, 10 µM worked out at 93.7%.

With `Cc1ccc(C(=O)Nc2ccccc2C(=O)N2CCN(Cc3ccccc3)CC2)cc1` [CBK263560], the viability at 28.5 h, 10 µM was found to be 94%.

Still in this series, the particulars now being: human, hela cells, % viability, bulk resorufin, single well.
Regarding `CCOc1cc(C=C2C(=O)NC(=S)NC2=O)ccc1OCc1c(C)no[n+]1[O-]` [CBK263468], the viability at 28.5 h, 10 µM worked out at 99.3%.

On to `O=P(Nc1ccc(Cl)c(Cl)c1)(Nc1ccc(Cl)c(Cl)c1)Oc1ccc(Cl)cc1` [CBK263487], for which the viability at 28.5 h, 10 µM worked out at 93.2%.

As for `O=C(Cn1cc(/C=C2/C(=O)NC(=S)N(c3ccc(Cl)cc3)C2=O)c2ccccc21)Nc1ccccc1` [CBK263535], the viability at 28.5 h, 10 µM is 98.4%.
